“And” between values parts separate entries of the source, which are not always exact repeats. Equal entries are not always repeated. Where two headings read alike, the source gives them in different places.
Assays:
[1] = tested on: PANC-1 xenograft; conditions: for Tumor Measurements (mm^3), group Mean / Individual Tumor Measurements (mm^3): Group 2: 500 μg/kg bw IP QD×14; for Individual Tumor Measurements (mm^3): single animals, listed as anti-STAT3 bacterial VHH13
[2] = tested on: MDA-MB-231 cells; assay: MTT proliferation assay, MDA-MB-231; format: cell-based, human; conditions: MDA-MB-231; for Absorbance: single experiments;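 for all read-outs here: proliferation of cultured human cancer cells read by MTT, with treated groups compared against a vehicle control group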
[3] = tested on: SJSA-1 xenograft; assay: SJSA-1 Bone Osteosarcoma subcutaneous xenograft model
[4] = tested on: PANC-1 cells; assay: MTT proliferation assay, PANC-1; conditions: SBT-100 100 μg/ml alone, experiment with Gemcitabine Hydrochloride (Biovision #1759), 72 hours
[5] = SBT-100 5.0 mg/kg BID 14 days IP, Doxorubicin 7.0 mg/kg days 1, 8 and 14 IP
[6] = study day 9 post implant, IP, SBT-100 5.0 mg/kg BIDx14 and/or Doxorubicin 7.0 mg/kg days 1, 8, 14
[7] = study day 13 post implant, IP, SBT-100 5.0 mg/kg BIDx14 and/or Doxorubicin 7.0 mg/kg days 1, 8, 14
[8] = study day 16 post implant, IP, SBT-100 5.0 mg/kg BIDx14 and/or Doxorubicin 7.0 mg/kg days 1, 8, 14
[9] = study day 20 post implant, IP, SBT-100 5.0 mg/kg BIDx14 and/or Doxorubicin 7.0 mg/kg days 1, 8, 14
[10] = study day 21 post implant, IP, SBT-100 5.0 mg/kg BIDx14 and/or Doxorubicin 7.0 mg/kg days 1, 8, 14
[11] = study day 23 post implant, IP, SBT-100 5.0 mg/kg BIDx14 and/or Doxorubicin 7.0 mg/kg days 1, 8, 14
[12] = study day 27 post implant, IP, SBT-100 5.0 mg/kg BIDx14 and/or Doxorubicin 7.0 mg/kg days 1, 8, 14

## anti-STAT3 VHH13: anti-STAT3 single-domain antibody, SEQ ID NO:3; bacterially produced, referred to as SBT-100
[1]; 500 μg/kg bw IP QD×14
  growth inhibition: no significant growth inhibition
  mean tumor size (±SE) on day 14 of dosing: 318.74 ± 29.76
[1]; 500 μg/kg bw IP QD×14, control […] days
  tumor doubling time: 23.02 days
[1]; 2/19
  Tumor Measurements (mm^3), group Mean: 110.58 mm^3
  Individual Tumor Measurements (mm^3): 96.31 mm^3 and 89.24 mm^3 and 80.62 mm^3 and 108.03 mm^3 and 77.66 mm^3 and 129.68 mm^3 and 108.99 mm^3 and 123.27 mm^3 and 144.53 mm^3 and 120.96 mm^3 and 112.69 mm^3 and 134.95 mm^3
[1]; 2/24
  Tumor Measurements (mm^3), group Mean: 149.71 mm^3
  Individual Tumor Measurements (mm^3): 193.71 mm^3 and 90.03 mm^3 and 148.97 mm^3 and 144.14 mm^3 and 116.21 mm^3 and 143.20 mm^3 and 182.30 mm^3 and 171.03 mm^3 and 136.03 mm^3 and 136.48 mm^3 and 144.76 mm^3 and 189.64 mm^3
[1]; 2/27
  Tumor Measurements (mm^3), group Mean: 222.47 mm^3
  Individual Tumor Measurements (mm^3): 275.06 mm^3 and 112.43 mm^3 and 196.38 mm^3 and 234.46 mm^3 and 313.19 mm^3 and 290.67 mm^3 and 239.00 mm^3 and 223.34 mm^3 and 198.47 mm^3 and 226.43 mm^3 and 167.12 mm^3 and 193.14 mm^3
[1]; 3/2
  Tumor Measurements (mm^3), group Mean: 242.11 mm^3
  Individual Tumor Measurements (mm^3): 317.53 mm^3 and 125.51 mm^3 and 187.24 mm^3 and 240.39 mm^3 and 290.38 mm^3 and 224.92 mm^3 and 254.64 mm^3 and 226.88 mm^3 and 226.04 mm^3 and 338.06 mm^3 and 225.70 mm^3 and 248.01 mm^3
[1]; 3/6
  Tumor Measurements (mm^3), group Mean: 318.74 mm^3
  Individual Tumor Measurements (mm^3): 395.37 mm^3 and 189.63 mm^3 and 299.84 mm^3 and 288.75 mm^3 and 411.66 mm^3 and 261.44 mm^3 and 342.19 mm^3 and 248.69 mm^3 and 247.97 mm^3 and 564.71 mm^3 and 223.06 mm^3 and 351.63 mm^3
[1]; 3/10
  Tumor Measurements (mm^3), group Mean: 408.74 mm^3
  Individual Tumor Measurements (mm^3): 540.66 mm^3 and 235.08 mm^3 and 530.46 mm^3 and 421.61 mm^3 and 197.67 mm^3 and 343.04 mm^3 and 464.00 mm^3 and 324.30 mm^3 and 273.58 mm^3 and 883.81 mm^3 and 326.19 mm^3 and 364.44 mm^3
[1]; SBT-100 5 mg/kg bw i.p. BID×14
  % treatment/control: 52.79%
  mean tumor size (±S.E.) at termination (day 28): 203.02±30.34
  mean tumor size (±SE) at last day of dosing (Day 14): 159.03±28.01
[1]; SBT-100 5 mg/kg bw i.p. BID×14, control 18.51 days
  tumor doubling time: 35.70 days
[1]; SBT-100 5 mg/kg bw i.p. BID×14, p=0.35
  mean tumor growth inhibition at the end of the study: 41.78%
[2]; 50 μg
  Average Absorbance: 0.82
[2]; 50 μg (50.0 μg/ml), listed as Anti-STAT3 Bacterial VHH13
  Average % Inhibition: 32.6%
[2]; 50 μg, listed as Anti-STAT3 Bacterial VHH13
  Absorbance: 0.82 and 0.99 and 0.64
[2]; 100 μg
  Average Absorbance: 0.11
[2]; 100 μg, listed as Anti-STAT3 Bacterial VHH13
  Absorbance: 0.07 and 0.12 and 0.14
[3]; [5]
  % T/C: 69.91%
  mean tumor growth inhibition at the end of the study: 25.23%
  mean tumor size (±S.E.) at termination: 1055.68±307.10
  mean tumor size (±SE) at the last day of dosing: 334.52±114.62
[3]; SJSA-1 xenograft
  mean tumor size compared to control: non-significant decrease in mean tumor size
[3]; control 8.22
  tumor doubling time: 8.84
[3]; [6]
  % Inh Mean: 21.06%
  % Inh Med: 11.92%
  Mean Abs (tumor measurement): 31.31 mm^3
  Median Abs (tumor measurement): 19.98 mm^3
  Tumor Measurements, single animals: 15.75 mm^3 and 19.98 mm^3 and 0.00 mm^3 and 69.47 mm^3 and 10.46 mm^3 and 79.76 mm^3 and 23.77 mm^3
[3]; [7]
  % Inh Mean: −45.34%
  % Inh Med: −44.59%
  Mean Abs (tumor measurement): 115.14 mm^3
  Median Abs (tumor measurement): 85.60 mm^3
  Tumor Measurements, single animals: 106.64 mm^3 and 28.26 mm^3 and 0.00 mm^3 and 126.45 mm^3 and 38.25 mm^3 and 420.78 mm^3 and 85.60 mm^3
[3]; [8]
  % Inh Mean: 12.69%
  % Inh Med: 14.60%
  % T/C: 71.23%
  Mean Abs (tumor measurement): 151.57 mm^3
  Median Abs (tumor measurement): 139.83 mm^3
  Tumor Measurements, single animals: 139.83 mm^3 and 36.05 mm^3 and 11.02 mm^3 and 200.95 mm^3 and 187.82 mm^3 and 358.90 mm^3 and 126.46 mm^3
[3]; [9]
  % Inh Mean: 18.11%
  % Inh Med: 24.54%
  % T/C: 73.26%
  Mean Abs (tumor measurement): 252.90 mm^3
  Median Abs (tumor measurement): 191.62 mm^3
  Tumor Measurements, single animals: 191.62 mm^3 and 70.70 mm^3 and 59.97 mm^3 and 616.53 mm^3 and 180.38 mm^3 and 450.45 mm^3 and 200.68 mm^3
[3]; [10]
  % Inh Mean: 16.23%
  % Inh Med: 35.42%
  % T/C: 76.22%
  Mean Abs (tumor measurement): 334.52 mm^3
  Median Abs (tumor measurement): 198.86 mm^3
  Tumor Measurements, single animals: 271.05 mm^3 and 115.97 mm^3 and 96.53 mm^3 and 901.18 mm^3 and 155.51 mm^3 and 602.51 mm^3 and 198.86 mm^3
[3]; [11]
  % Inh Mean: 8.48%
  % Inh Med: 33.12%
  % T/C: 79.47%
  Mean Abs (tumor measurement): 477.43 mm^3
  Median Abs (tumor measurement): 308.49 mm^3
  Tumor Measurements, single animals: 308.49 mm^3 and 201.00 mm^3 and 185.39 mm^3 and 1,359.67 mm^3 and 197.83 mm^3 and 756.79 mm^3 and 332.80 mm^3
[3]; [12]
  % Inh Mean: 25.23%
  % Inh Med: 37.90%
  % T/C: 69.91%
  Mean Abs (tumor measurement): 1,055.68 mm^3
  Median Abs (tumor measurement): 707.34 mm^3
  Tumor Measurements, single animals: 707.34 mm^3 and 474.71 mm^3 and 380.72 mm^3 and 2,500.29 mm^3 and 351.21 mm^3 and 1,699.89 mm^3 and 1,275.63 mm^3
[4]
  Abs: 0.381

Source: US11370847B2, “Single domain antibodies directed against intracellular antigens” (Singh Biotechnology, LLC, priority 2014, dated 2022)
